pIC50: −log10 of the molar value.
Target: T1, human EP2 (PTGER2) (Homo sapiens, UniProt P43116)
T1 construct: Cayman Chemical (Human EP2 Reporter Assay Kit)
Experiment: EP2 antagonist assay (HEK-293 CNG membrane potential cAMP assay / 293T SEAP reporter assay, PGE2-stimulated)
Assay type: cell-based
Conditions: EP2 antagonist activity; concentration for 50% inhibition of signal compared to DMSO
From the text: 1. The HEK-293 CNG (Cyclic Nucleotide Gated) cell line expressing a modified CNG channel that leads to cell membrane depolarization in response to elevated intracellular cAMP levels, which can be measured using a fluorescent membrane potential dye, was engineered to express human EP2 (PTGER2) or EP4 (EP4R). The resulting cell line ACTOne™ PTGER2 or ACTOne™ EP4R as well as the fluorescent membrane potential dye were purchased from eEnzyme (Gaithersburg, MD, US) and used in this assay. Briefly, cells were plated at 1.2×10^4 cells/well in 20 μL DMEM supplemented with 2% Fetal Bovine Serum (FBS, VWR International), 1x Penicillin/Streptomycin (GenClone), 0.2 μg/mL puromycin (InvivoGen) and 50 μg/mL G418 (InvivoGen) on a 384 well plate (Greiner). The next day, cells were dye-loaded with 20 μL/well of 1x Dye-loading solution (eENZYME) following the manufacturer's instruction. After 2 hours of incubation at room temperature (RT) in the dark, a pre-read was made to obtain the background signals using CLARIOstar plate reader (BMG LABTECH, Germany) with the following filter settings: excitation=530/20 nm, emission=590/20 nm. Next, a serial dilution of compound (plus a DMSO control) were added to the plate (5 μL/well) and the reaction was incubated at RT for 15 min before adding 5 μL of PGE2 to every well for a final concentration of 5 nM. All wells were duplicated. The plate was then further incubated at RT for 30 min prior to a final read with the same machine settings. Background-subtracted signals were used to calculate IC50 values.
2. Human EP2 and EP4 Reporter Assay Kits were purchased from Cayman Chemical (Ann Arbor, MI, USA). The assay was performed following the provided User Manual. Briefly, a reverse transfection was performed by seeding 6.0×10^4 of 293T cells (ATCC) to each well of the provided Strip Plate coated with a proprietary transfection complex containing DNA constructs for expressing human EP2 or EP4 and a cAMP response element regulated secreted alkaline phosphatase (SEAP) reporter, in 200 μL DMEM supplemented with 2% FBS and incubated for 20-24 hours at 37° C. with 5% CO2. After the incubation, the culture medium was carefully removed, and the cells were replenished with 150 μL pre-warmed serum-free medium. PGE2 and test compounds were prepared together at 4x the desired final concentration, and 50 μL was added to each assigned well with the final concentration of 13 nM and 2 nM PGE2 for EP2 and EP4 assay, respectively. After 6-8 hours of incubation, 10 μL media from each well was transferred to corresponding well of a new plate, which was then sealed and incubated at 65° C. for 30 min. The plate was then cooled down to RT and 50 μL SEAP substrate was added to each well. Luminescence signal was measured using a CLARIOstar plate reader.
The IC50 value was determined as the concentration for 50% inhibition of signal compared to DMSO (A: IC50 […]; B: IC50 between 100 nM and 1,000 nM; C: IC50≥1,000 nM).

T1 sequence (P43116 whole entry): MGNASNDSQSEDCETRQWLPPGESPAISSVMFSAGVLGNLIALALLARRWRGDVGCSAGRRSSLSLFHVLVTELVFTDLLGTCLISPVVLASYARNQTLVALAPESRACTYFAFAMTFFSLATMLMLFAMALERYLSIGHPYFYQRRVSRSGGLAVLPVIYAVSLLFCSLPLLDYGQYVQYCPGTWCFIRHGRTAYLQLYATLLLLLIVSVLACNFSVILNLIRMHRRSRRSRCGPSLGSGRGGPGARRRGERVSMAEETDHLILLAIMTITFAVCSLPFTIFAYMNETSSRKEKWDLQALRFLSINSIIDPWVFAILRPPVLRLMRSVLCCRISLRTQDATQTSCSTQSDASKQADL

| Structure (SMILES) | pIC50 |
| --- | --- |
| C[C@@H](NC(=O)c1ccc(-c2ccccc2)c2ccn(Cc3ccc(C(F)(F)F)cc3)c12)c1ccc(C(=O)O)cc1 [Example 29, (R)-4-(1-(4-phenyl-1-(4-(trifluoromethyl)benzyl)-1H-indole-7-carboxamido)ethyl) benzoic acid] | ≤ 6.00 |
| C[C@@H](NC(=O)c1ccc(-c2cccc(C#N)c2)c2ccn(Cc3ccc(C(F)(F)F)cc3)c12)c1ccc(C(=O)O)cc1 [Example 30, (R)-4-(1-(4-(3-cyanophenyl)-1-(4-(trifluoromethyl)benzyl)-1H-indole-7-carboxamido)ethyl) benzoic acid] | ≤ 6.00 |
| C[C@@H](NC(=O)c1ccc(-c2ccc(F)cc2)c2ccn(Cc3ccc(C(F)(F)F)cc3)c12)c1ccc(C(=O)O)cc1 [Example 35, (R)-4-(1-(4-(4-fluorophenyl)-1-(4-(trifluoromethyl)benzyl)-1H-indole-7-carboxamido)ethyl)benzoic acid] | ≤ 6.00 |
| O=C(O)c1ccc(C2(NC(=O)c3ccc(-c4ccccc4)c4ccn(Cc5ccc(C(F)(F)F)cc5)c34)CC2)cc1 [Example 36, 4-(1-(4-phenyl-1-(4-(trifluoromethyl)benzyl)-1H-indole-7-carboxamido)cyclopropyl)benzoic acid] | ≤ 6.00 |
| N#Cc1cccc(-c2ccc(C(=O)NC3(c4ccc(C(=O)O)cc4)CC3)c3c2ccn3Cc2ccc(C(F)(F)F)cc2)c1 [Example 37, 4-(1-(4-(3-cyanophenyl)-1-(4-(trifluoromethyl)benzyl)-1H-indole-7-carboxamido)cyclopropyl)benzoic acid] | ≤ 6.00 |
| O=C(O)c1ccc(C2(NC(=O)c3ccc(-c4ccc(F)cc4)c4ccn(Cc5ccc(C(F)(F)F)cc5)c34)CC2)cc1 [Example 42, 4-(1-(4-(4-fluorophenyl)-1-(4-(trifluoromethyl)benzyl)-1H-indole-7-carboxamido)cyclopropyl)-benzoic acid] | ≤ 6.00 |
| O=C(O)c1ccc(C2(NC(=O)c3cc(Nc4ccccc4)cc4ccn(Cc5ccc(C(F)(F)F)cc5)c34)CC2)cc1 [Example 43, 4-(1-(5-(phenylamino)-1-(4-(trifluoromethyl)benzyl)-1H-indole-7-carboxamido)cyclopropyl)benzoic acid] | > 7.00 |
| CN(c1ccccc1)c1cc(C(=O)NCc2ccc(C(=O)O)cc2)c2c(ccn2Cc2ccc(C(F)(F)F)cc2)c1 [Example 45, 4-((5-(methyl(phenyl)amino)-1-(4-(trifluoromethyl)benzyl)-1H-indole-7-carboxamido)methyl)benzoic acid] | 6.00 to 7.00 |
| CN(c1ccccc1)c1ccc(C(=O)NC2(c3ccc(C(=O)O)cc3)CC2)c2c1ccn2Cc1ccc(C(F)(F)F)cc1 [Example 46, 4-(1-(4-(methyl(phenyl)amino)-1-(4-(trifluoromethyl)benzyl)-1H-indole-7-carboxamido)cyclopropyl)benzoic acid] | ≤ 6.00 |
| O=C(O)c1ccc(CNC(=O)c2cc(Nc3ccccc3)cc3ccn(Cc4ccc(C(F)(F)F)cc4)c23)cc1 [Example 47, 4-((5-(phenylamino)-1-(4-(trifluoromethyl)benzyl)-1H-indole-7-carboxamido)methyl)benzoic acid] | ≤ 6.00 |
| O=C(O)c1ccc(C2(NC(=O)c3cc(Oc4ccccc4)cc4ccn(Cc5ccc(C(F)(F)F)cc5)c34)CC2)cc1 [Example 49, 4-(1-(5-phenoxy-1-(4-(trifluoromethyl)benzyl)-1H-indole-7-carboxamido)cyclopropyl)benzoic acid] | 6.00 to 7.00 |

Continued, values first:

| pIC50 | Structure (SMILES) |
| --- | --- |
| ≤ 6.00 | O=C(O)c1ccc(CNC(=O)c2ccc(-c3ccc(F)c(F)c3)c3ccn(Cc4ccc(C(F)(F)F)cc4)c23)cc1 [Example 23, 4-((4-(3,4-difluorophenyl)-1-(4-(trifluoromethyl)benzyl)-1H-indole-7-carboxamido)methyl) benzoic acid] |
| ≤ 6.00 | O=C(O)c1ccc(CNC(=O)c2ccc(-c3cccc(C(F)(F)F)c3)c3ccn(Cc4ccc(C(F)(F)F)cc4)c23)cc1 [Example 24, 4-((1-(4-(trifluoromethyl)benzyl)-4-(3-(trifluoromethyl)phenyl)-1H-indole-7-carboxamido)-methyl)benzoic acid] |
| ≤ 6.00 | O=C(O)c1ccc(CNC(=O)c2ccc(-c3ccc(F)cc3)c3ccn(Cc4ccc(C(F)(F)F)cc4)c23)cc1 [Example 25, 4-((4-(4-fluorophenyl)-1-(4-(trifluoromethyl)benzyl)-1H-indole-7-carboxamido)methyl)benzoic acid] |
| 6.00 to 7.00 | O=C(O)c1ccc(CNC(=O)c2ccc(-c3ccccc3)c3ccn(Cc4ccc(C(F)(F)F)cc4)c23)cc1 [Example 26, 4-((4-phenyl-1-(4-(trifluoromethyl)benzyl)-1H-indole-7-carboxamido)methyl)benzoic acid] |
| ≤ 6.00 | O=C(O)c1ccc(CNC(=O)c2ccc(-c3cc(F)cc(F)c3)c3ccn(Cc4ccc(C(F)(F)F)cc4)c23)cc1 [Example 27, 4-((4-(3,5-difluorophenyl)-1-(4-(trifluoromethyl)benzyl)-1H-indole-7-carboxamido)methyl) benzoic acid] |
| ≤ 6.00 | O=C(O)c1ccc(CNC(=O)c2ccc(-c3cc(F)cc(C(F)(F)F)c3)c3ccn(Cc4ccc(C(F)(F)F)cc4)c23)cc1 [Example 28, 4-((4-(3-fluoro-5-(trifluoromethyl)phenyl)-1-(4-(trifluoromethyl)benzyl)-1H-indole-7-carboxamido)methyl)benzoic acid] |
| ≤ 6.00 | C[C@@H](NC(=O)c1ccc(-c2ccc(F)c(F)c2)c2ccn(Cc3ccc(C(F)(F)F)cc3)c12)c1ccc(C(=O)O)cc1 [Example 31, (R)-4-(1-(4-(3,4-difluorophenyl)-1-(4-(trifluoromethyl)benzyl)-1H-indole-7-carboxamido)ethyl)benzoic acid] |
| ≤ 6.00 | C[C@@H](NC(=O)c1ccc(-c2cc(F)cc(F)c2)c2ccn(Cc3ccc(C(F)(F)F)cc3)c12)c1ccc(C(=O)O)cc1 [Example 32, (R)-4-(1-(4-(3,5-difluorophenyl)-1-(4-(trifluoromethyl)benzyl)-1H-indole-7-carboxamido)ethyl) benzoic acid] |
| ≤ 6.00 | C[C@@H](NC(=O)c1ccc(-c2cccc(C(F)(F)F)c2)c2ccn(Cc3ccc(C(F)(F)F)cc3)c12)c1ccc(C(=O)O)cc1 [Example 33, (R)-4-(1-(1-(4-(trifluoromethyl)benzyl)-4-(3-(trifluoromethyl)phenyl)-1H-indole-7-carboxamido)ethyl) benzoic acid] |
| ≤ 6.00 | C[C@@H](NC(=O)c1ccc(-c2cc(F)cc(C(F)(F)F)c2)c2ccn(Cc3ccc(C(F)(F)F)cc3)c12)c1ccc(C(=O)O)cc1 [Example 34, (R)-4-(1-(4-(3-fluoro-5-(trifluoromethyl)phenyl)-1-(4-(trifluoromethyl)benzyl)-1H-indole-7-carboxamido)ethyl)benzoic acid] |
| ≤ 6.00 | O=C(O)c1ccc(C2(NC(=O)c3ccc(-c4ccc(F)c(F)c4)c4ccn(Cc5ccc(C(F)(F)F)cc5)c34)CC2)cc1 [Example 38, 4-(1-(4-(3,4-difluorophenyl)-1-(4-(trifluoromethyl)benzyl)-1H-indole-7-carboxamido)cyclopropyl)benzoic acid] |
| 6.00 to 7.00 | O=C(O)c1ccc(C2(NC(=O)c3ccc(-c4cc(F)cc(F)c4)c4ccn(Cc5ccc(C(F)(F)F)cc5)c34)CC2)cc1 [Example 39, 4-(1-(4-(3,5-difluorophenyl)-1-(4-(trifluoromethyl)benzyl)-1H-indole-7-carboxamido)cyclopropyl)benzoic acid] |
| ≤ 6.00 | O=C(O)c1ccc(C2(NC(=O)c3ccc(-c4cccc(C(F)(F)F)c4)c4ccn(Cc5ccc(C(F)(F)F)cc5)c34)CC2)cc1 [Example 40, 4-(1-(1-(4-(trifluoromethyl)benzyl)-4-(3-(trifluoromethyl)phenyl)-1H-indole-7-carboxamido)cyclopropyl)benzoic acid] |
| ≤ 6.00 | O=C(O)c1ccc(C2(NC(=O)c3ccc(-c4cc(F)cc(C(F)(F)F)c4)c4ccn(Cc5ccc(C(F)(F)F)cc5)c34)CC2)cc1 [Example 41, 4-(1-(4-(3-fluoro-5-(trifluoromethyl)phenyl)-1-(4-(trifluoromethyl)benzyl)-1H-indole-7-carboxamido)cyclopropyl)benzoic acid] |

Reference: US20250179017A1 (GUANGDONG NEWOPP BIOPHARMACEUTICALS CO., LTD., priority 2022, published 2025)
